Laboratory results published in ChEMBL document CHEMBL4507302, “Data for DCP probe TP-020” (2021).

What was measured:
[1] = tested on: Mast/stem cell growth factor receptor Kit (Homo sapiens), P10721 [V559D]; conditions: Compound concentration 1000.0 nM
[2] = molecular target: Serine/threonine-protein kinase 33 (Homo sapiens) (UniProt Q9BYT3); conditions: Compound concentration 1000.0 nM
[3] = tested on: Tyrosine-protein kinase ABL1 (Homo sapiens), P00519 [Y253F]; conditions: Compound concentration 1000.0 nM
[4] = tested on: ALK tyrosine kinase receptor (Homo sapiens), Q9UM73 [C1156Y]; conditions: Compound concentration 1000.0 nM
[5] = molecular target: Death-associated protein kinase 2 (Homo sapiens) (UniProt Q9UIK4); conditions: Compound concentration 1000.0 nM
Chain of Death-associated protein kinase 2 (Homo sapiens) (Q9UIK4 whole entry, looked up): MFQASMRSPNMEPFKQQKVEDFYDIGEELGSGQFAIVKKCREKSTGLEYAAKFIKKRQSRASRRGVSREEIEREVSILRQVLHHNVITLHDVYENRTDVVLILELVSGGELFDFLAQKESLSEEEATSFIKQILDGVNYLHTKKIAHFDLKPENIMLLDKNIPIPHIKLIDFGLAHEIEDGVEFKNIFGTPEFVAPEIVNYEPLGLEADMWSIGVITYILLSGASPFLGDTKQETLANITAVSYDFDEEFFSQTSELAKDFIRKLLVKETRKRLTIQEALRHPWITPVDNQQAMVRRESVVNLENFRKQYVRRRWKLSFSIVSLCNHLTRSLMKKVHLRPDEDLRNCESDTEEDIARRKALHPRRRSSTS

[6] = molecular target: Sodium-dependent noradrenaline transporter (Homo sapiens) (UniProt P23975); conditions: Compound concentration 10.0 uM
[7] = tested on: Phosphatidylinositol 4,5-bisphosphate 3-kinase catalytic subunit alpha isoform (Homo sapiens), P42336 [Q546K]; conditions: Compound concentration 1000.0 nM
[8] = molecular target: Serine/threonine-protein kinase Nek10 (Homo sapiens) (UniProt Q6ZWH5); conditions: Compound concentration 1000.0 nM
[9] = molecular target: Phosphatidylinositol 4-phosphate 3-kinase C2 domain-containing subunit beta (Homo sapiens) (UniProt O00750); conditions: Compound concentration 1000.0 nM
[10] = molecular target: Myosin-IIIa (Homo sapiens) (UniProt Q8NEV4); conditions: Compound concentration 1000.0 nM
[11] = molecular target: Dual specificity mitogen-activated protein kinase kinase 7 (Homo sapiens) (UniProt O14733); conditions: Compound concentration 1000.0 nM
Chain of Dual specificity mitogen-activated protein kinase kinase 7 (Homo sapiens) (O14733 whole entry): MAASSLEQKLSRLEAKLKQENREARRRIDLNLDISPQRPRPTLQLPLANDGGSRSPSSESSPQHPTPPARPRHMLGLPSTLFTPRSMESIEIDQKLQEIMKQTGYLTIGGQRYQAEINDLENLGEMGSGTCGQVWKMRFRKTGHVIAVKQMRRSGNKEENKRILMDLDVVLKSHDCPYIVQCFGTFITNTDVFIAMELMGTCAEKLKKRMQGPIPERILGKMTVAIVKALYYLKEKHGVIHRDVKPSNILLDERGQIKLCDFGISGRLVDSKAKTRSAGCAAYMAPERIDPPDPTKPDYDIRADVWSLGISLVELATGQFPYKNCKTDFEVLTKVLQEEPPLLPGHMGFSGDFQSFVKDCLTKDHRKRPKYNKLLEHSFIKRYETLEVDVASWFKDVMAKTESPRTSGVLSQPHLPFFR

[12] = molecular target: Mitogen-activated protein kinase 3 (Homo sapiens) (UniProt P27361); conditions: Compound concentration 1000.0 nM
[13] = tested on: Epidermal growth factor receptor (Homo sapiens), P00533 [UNDEFINED MUTATION]; conditions: Compound concentration 1000.0 nM
[14] = molecular target: Serine/threonine-protein kinase PAK 6 (Homo sapiens) (UniProt Q9NQU5); conditions: Compound concentration 1000.0 nM
[15] = molecular target: NT-3 growth factor receptor (Homo sapiens) (UniProt Q16288); conditions: Compound concentration 1000.0 nM
Chain of NT-3 growth factor receptor (Homo sapiens) (Q16288 32-839 limits assumed): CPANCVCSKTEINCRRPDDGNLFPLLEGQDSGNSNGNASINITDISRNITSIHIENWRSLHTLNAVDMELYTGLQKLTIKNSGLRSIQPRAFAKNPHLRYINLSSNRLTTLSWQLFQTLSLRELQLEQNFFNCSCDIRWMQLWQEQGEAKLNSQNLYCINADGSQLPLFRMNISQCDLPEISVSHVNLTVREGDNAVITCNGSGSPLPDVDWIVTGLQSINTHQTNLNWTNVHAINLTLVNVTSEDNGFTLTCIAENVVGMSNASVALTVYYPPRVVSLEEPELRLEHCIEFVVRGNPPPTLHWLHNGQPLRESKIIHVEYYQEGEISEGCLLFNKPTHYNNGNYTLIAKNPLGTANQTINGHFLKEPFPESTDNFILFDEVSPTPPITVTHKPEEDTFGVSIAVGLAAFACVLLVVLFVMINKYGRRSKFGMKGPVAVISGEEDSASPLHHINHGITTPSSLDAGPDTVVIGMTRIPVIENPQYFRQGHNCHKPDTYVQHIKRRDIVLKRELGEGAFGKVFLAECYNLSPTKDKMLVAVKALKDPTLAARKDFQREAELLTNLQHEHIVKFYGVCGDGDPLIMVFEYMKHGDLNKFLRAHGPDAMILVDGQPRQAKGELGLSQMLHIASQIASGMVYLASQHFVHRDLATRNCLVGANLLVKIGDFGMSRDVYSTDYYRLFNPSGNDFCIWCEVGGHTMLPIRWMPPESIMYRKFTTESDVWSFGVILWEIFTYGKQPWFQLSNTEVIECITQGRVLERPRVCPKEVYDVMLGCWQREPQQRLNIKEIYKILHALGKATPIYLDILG

[16] = molecular target: Dual specificity protein kinase CLK3 (Homo sapiens) (UniProt P49761); conditions: Compound concentration 1000.0 nM
[17] = molecular target: MAP kinase-interacting serine/threonine-protein kinase 1 (Homo sapiens) (UniProt Q9BUB5); conditions: Compound concentration 1000.0 nM
[18] = molecular target: Homeodomain-interacting protein kinase 2 (Homo sapiens) (UniProt Q9H2X6); conditions: Compound concentration 1000.0 nM
[19] = molecular target: Serine/threonine-protein kinase TAO1 (Homo sapiens) (UniProt Q7L7X3); conditions: Compound concentration 1000.0 nM
[20] = tested on: Receptor-type tyrosine-protein kinase FLT3 (Homo sapiens), P36888 [UNDEFINED MUTATION]; conditions: Compound concentration 1000.0 nM
[21] = molecular target: Phosphatidylinositol 3-kinase C2 domain-containing subunit gamma (Homo sapiens) (UniProt O75747); conditions: Compound concentration 1000.0 nM
Chain of Phosphatidylinositol 3-kinase C2 domain-containing subunit gamma (Homo sapiens) (O75747 whole entry, the tested form may be a part): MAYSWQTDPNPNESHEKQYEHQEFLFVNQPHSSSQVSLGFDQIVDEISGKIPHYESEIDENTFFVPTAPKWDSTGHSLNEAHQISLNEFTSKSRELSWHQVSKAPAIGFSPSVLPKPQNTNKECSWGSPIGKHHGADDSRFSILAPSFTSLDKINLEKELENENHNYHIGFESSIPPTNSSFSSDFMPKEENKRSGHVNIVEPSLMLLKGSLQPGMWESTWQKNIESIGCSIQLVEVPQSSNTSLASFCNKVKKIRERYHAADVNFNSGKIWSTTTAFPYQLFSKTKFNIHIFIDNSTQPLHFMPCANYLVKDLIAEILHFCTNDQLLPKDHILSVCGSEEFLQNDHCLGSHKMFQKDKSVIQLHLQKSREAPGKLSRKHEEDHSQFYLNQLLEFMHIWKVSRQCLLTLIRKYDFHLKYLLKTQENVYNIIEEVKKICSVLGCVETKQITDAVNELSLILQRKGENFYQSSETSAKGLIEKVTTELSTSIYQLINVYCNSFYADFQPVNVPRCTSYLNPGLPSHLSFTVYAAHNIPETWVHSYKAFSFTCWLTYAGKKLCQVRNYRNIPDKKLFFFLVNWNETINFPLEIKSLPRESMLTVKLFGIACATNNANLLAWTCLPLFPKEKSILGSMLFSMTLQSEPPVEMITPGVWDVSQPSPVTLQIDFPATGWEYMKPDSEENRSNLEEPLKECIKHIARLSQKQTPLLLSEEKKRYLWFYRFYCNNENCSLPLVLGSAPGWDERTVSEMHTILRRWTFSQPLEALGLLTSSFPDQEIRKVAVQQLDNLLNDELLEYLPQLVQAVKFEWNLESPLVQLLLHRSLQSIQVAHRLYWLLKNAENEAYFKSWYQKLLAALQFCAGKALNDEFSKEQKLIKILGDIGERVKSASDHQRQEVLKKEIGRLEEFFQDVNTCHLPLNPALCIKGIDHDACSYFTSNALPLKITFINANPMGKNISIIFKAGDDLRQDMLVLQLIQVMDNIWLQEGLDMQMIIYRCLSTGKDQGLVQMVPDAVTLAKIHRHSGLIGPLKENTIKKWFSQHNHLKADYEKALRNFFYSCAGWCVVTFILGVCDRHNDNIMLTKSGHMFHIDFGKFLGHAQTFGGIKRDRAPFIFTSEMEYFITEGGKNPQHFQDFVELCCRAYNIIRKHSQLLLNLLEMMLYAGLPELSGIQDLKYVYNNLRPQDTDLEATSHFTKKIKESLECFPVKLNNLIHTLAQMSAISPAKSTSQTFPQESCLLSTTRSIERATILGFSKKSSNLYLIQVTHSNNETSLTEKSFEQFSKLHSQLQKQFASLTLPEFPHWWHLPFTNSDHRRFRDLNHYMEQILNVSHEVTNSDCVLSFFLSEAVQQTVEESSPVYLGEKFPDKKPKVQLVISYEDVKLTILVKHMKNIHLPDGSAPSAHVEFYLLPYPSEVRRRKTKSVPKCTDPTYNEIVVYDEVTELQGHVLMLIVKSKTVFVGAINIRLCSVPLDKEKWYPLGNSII

[22] = molecular target: Homeodomain-interacting protein kinase 3 (Homo sapiens) (UniProt Q9H422); conditions: Compound concentration 1000.0 nM
[23] = molecular target: Serine/threonine-protein kinase N2 (Homo sapiens) (UniProt Q16513); conditions: Compound concentration 1000.0 nM
[24] = molecular target: Delta-type opioid receptor (Homo sapiens) (UniProt P41143); conditions: Compound concentration 10.0 uM
[25] = molecular target: Serine/threonine-protein kinase 38-like (Homo sapiens) (UniProt Q9Y2H1); conditions: Compound concentration 1000.0 nM
[26] = tested on: Epidermal growth factor receptor (Homo sapiens), P00533 [G719S]; conditions: Compound concentration 1000.0 nM
[27] = molecular target: Serine/threonine-protein kinase tousled-like 2 (Homo sapiens) (UniProt Q86UE8); conditions: Compound concentration 1000.0 nM
[28] = molecular target: MAP kinase-activated protein kinase 2 (Homo sapiens) (UniProt P49137); conditions: Compound concentration 1000.0 nM
Chain of MAP kinase-activated protein kinase 2 (Homo sapiens) (P49137 whole entry, looked up): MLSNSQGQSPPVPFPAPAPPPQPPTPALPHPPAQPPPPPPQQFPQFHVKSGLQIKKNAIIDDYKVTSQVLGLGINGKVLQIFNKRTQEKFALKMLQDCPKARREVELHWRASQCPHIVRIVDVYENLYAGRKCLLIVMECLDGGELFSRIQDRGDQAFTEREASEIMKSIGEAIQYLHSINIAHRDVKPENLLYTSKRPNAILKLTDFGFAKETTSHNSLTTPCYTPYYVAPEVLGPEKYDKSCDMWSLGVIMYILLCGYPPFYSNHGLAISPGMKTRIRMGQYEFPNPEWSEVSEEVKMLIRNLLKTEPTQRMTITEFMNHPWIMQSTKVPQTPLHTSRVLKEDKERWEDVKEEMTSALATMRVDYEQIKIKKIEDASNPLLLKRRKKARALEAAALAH

[29] = molecular target: Death-associated protein kinase 1 (Homo sapiens) (UniProt P53355); conditions: Compound concentration 1000.0 nM
[30] = molecular target: Mitogen-activated protein kinase kinase kinase 15 (Homo sapiens) (UniProt Q6ZN16); conditions: Compound concentration 1000.0 nM
Chain of Mitogen-activated protein kinase kinase kinase 15 (Homo sapiens) (Q6ZN16 whole entry): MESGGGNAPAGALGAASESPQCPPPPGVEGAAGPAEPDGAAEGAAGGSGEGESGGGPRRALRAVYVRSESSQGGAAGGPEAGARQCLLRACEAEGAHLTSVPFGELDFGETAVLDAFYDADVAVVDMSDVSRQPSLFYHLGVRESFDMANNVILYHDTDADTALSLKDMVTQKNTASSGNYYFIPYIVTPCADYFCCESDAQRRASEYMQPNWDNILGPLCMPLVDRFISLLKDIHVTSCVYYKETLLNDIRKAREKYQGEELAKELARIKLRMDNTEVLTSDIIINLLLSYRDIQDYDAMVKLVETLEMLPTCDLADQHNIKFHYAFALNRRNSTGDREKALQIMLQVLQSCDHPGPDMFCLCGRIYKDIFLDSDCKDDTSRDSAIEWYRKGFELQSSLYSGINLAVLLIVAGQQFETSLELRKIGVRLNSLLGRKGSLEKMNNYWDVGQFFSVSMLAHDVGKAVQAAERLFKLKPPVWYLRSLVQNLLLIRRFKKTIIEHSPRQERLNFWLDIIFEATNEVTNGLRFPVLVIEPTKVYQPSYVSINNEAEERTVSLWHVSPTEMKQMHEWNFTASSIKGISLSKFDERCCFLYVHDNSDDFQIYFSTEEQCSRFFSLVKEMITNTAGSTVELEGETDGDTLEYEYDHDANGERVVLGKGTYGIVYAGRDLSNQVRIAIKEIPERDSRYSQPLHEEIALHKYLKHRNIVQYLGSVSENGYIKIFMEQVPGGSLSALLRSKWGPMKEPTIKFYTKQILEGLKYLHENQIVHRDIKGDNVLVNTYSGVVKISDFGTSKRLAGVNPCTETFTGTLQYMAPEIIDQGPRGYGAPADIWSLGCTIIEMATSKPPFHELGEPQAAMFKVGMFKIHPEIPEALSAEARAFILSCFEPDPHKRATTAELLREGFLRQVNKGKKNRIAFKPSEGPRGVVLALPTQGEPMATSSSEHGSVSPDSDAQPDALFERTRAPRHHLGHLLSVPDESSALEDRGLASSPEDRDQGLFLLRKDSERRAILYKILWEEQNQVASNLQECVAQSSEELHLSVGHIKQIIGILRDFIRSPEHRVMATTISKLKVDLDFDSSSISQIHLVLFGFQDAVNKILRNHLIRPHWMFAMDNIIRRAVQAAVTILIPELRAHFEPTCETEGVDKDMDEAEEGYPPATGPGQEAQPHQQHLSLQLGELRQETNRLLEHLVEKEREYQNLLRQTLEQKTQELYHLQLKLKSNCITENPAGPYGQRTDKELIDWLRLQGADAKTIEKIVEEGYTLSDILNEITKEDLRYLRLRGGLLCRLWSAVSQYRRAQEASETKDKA

[31] = molecular target: Serine/threonine-protein kinase 36 (Homo sapiens) (UniProt Q9NRP7); conditions: Compound concentration 1000.0 nM
[32] = molecular target: Mitogen-activated protein kinase kinase kinase kinase 3 (Homo sapiens) (UniProt Q8IVH8); conditions: Compound concentration 1000.0 nM
[33] = molecular target: Serine/threonine-protein kinase NIM1 (Homo sapiens) (UniProt Q8IY84); conditions: Compound concentration 1000.0 nM
[34] = molecular target: Serine/threonine-protein kinase LATS2 (Homo sapiens) (UniProt Q9NRM7); conditions: Compound concentration 1000.0 nM
[35] = molecular target: Macrophage colony-stimulating factor 1 receptor (Homo sapiens) (UniProt P07333); conditions: Compound concentration 1000.0 nM
[36] = tested on: Mast/stem cell growth factor receptor Kit (Homo sapiens), P10721 [V559D,T670I]; conditions: Compound concentration 1000.0 nM
[37] = molecular target: Tyrosine-protein kinase Yes (Homo sapiens) (UniProt P07947); conditions: Compound concentration 1000.0 nM
[38] = molecular target: Rho-associated protein kinase 2 (Homo sapiens) (UniProt O75116); conditions: Compound concentration 1000.0 nM
[39] = molecular target: Serine/threonine-protein kinase BRSK1 (Homo sapiens) (UniProt Q8TDC3); conditions: Compound concentration 1000.0 nM
[40] = tested on: Mast/stem cell growth factor receptor Kit (Homo sapiens), P10721 [D816V]; conditions: Compound concentration 1000.0 nM
[41] = molecular target: Fibroblast growth factor receptor 3 (Homo sapiens) (UniProt P22607); conditions: Compound concentration 1000.0 nM
[42] = molecular target: Non-receptor tyrosine-protein kinase TNK1 (Homo sapiens) (UniProt Q13470); conditions: Compound concentration 1000.0 nM
[43] = molecular target: Mitogen-activated protein kinase kinase kinase kinase 5 (Homo sapiens) (UniProt Q9Y4K4); conditions: Compound concentration 1000.0 nM
[44] = molecular target: Muscarinic acetylcholine receptor M4 (Homo sapiens) (UniProt P08173); conditions: Compound concentration 10.0 uM

Nc1cnc(N2CCc3cc(S(=O)(=O)Nc4c(F)cc(Cl)cc4F)cc(N4CCCC4=O)c32)nc1
inactive: residual activity [1] 100% | residual activity [2] 80% | residual activity [3] 94% | residual activity [4] 100% | residual activity [5] 91% | inhibition [6] 18.2% | residual activity [7] 78% | residual activity [8] 100% | residual activity [9] 83% | residual activity [10] 77% | residual activity [11] 100% | residual activity [12] 91% | residual activity [13] 100% | residual activity [14] 100% | residual activity [15] 97% | residual activity [16] 74% | residual activity [17] 98% | residual activity [18] 100% | residual activity [19] 80% | residual activity [20] 100% | residual activity [21] 78% | residual activity [22] 100% | residual activity [23] 100% | inhibition [24] -1.24% | residual activity [26] 75% | residual activity [27] 79% | residual activity [28] 100% | residual activity [29] 100% | residual activity [30] 100% | residual activity [31] 98% | residual activity [32] 93% | residual activity [33] 100% | residual activity [34] 100% | residual activity [35] 100% | residual activity [36] 100% | residual activity [37] 100% | residual activity [38] 100% | residual activity [39] 100% | residual activity [40] 100% | residual activity [41] 100% | residual activity [42] 100% | residual activity [43] 73% | inhibition [44] 9.99%
active: residual activity [25] 42%

Cn1nc(C(F)(F)F)cc1-c1cnc(N2CCc3cc(S(=O)(=O)Nc4c(F)cc(Cl)cc4F)cc(N4CCCC4=O)c32)nc1 [TP-020]
inactive: residual activity [1] 99% | residual activity [2] 100% | residual activity [3] 95% | residual activity [4] 72% | residual activity [5] 94% | inhibition [6] 5.69% | residual activity [7] 82% | residual activity [8] 80% | residual activity [9] 99% | residual activity [10] 100% | residual activity [11] 98% | residual activity [12] 100% | residual activity [13] 100% | residual activity [14] 100% | residual activity [15] 98% | residual activity [16] 88% | residual activity [17] 72% | residual activity [18] 74% | residual activity [19] 99% | residual activity [20] 82% | residual activity [21] 94% | residual activity [22] 85% | residual activity [23] 82% | inhibition [24] 28.7% | residual activity [25] 88% | residual activity [26] 100% | residual activity [27] 94% | residual activity [28] 73% | residual activity [29] 96% | residual activity [30] 81% | residual activity [31] 100% | residual activity [32] 84% | residual activity [33] 80% | residual activity [34] 93% | residual activity [35] 82% | residual activity [36] 88% | residual activity [37] 99% | residual activity [38] 85% | residual activity [39] 100% | residual activity [40] 100% | residual activity [41] 100% | residual activity [42] 100% | residual activity [43] 88% | inhibition [44] 41.2%
